The compounds below were run against human CXCR3-A receptor (Homo sapiens (Human), UniProt P49682) (assay: 125I-CXCL10 competition radioligand binding assay). Details: displacement of 125I-CXCL10 from membranes of CHO cells expressing human recombinant CXCR3-A.
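Note: One-hour incubation of membranes with tracer, bound radioligand separated by glass fibre filtration, IC50 derived from four-parameter nonlinear fit of competition curves.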

Chain of human CXCR3-A receptor (P49682 whole entry): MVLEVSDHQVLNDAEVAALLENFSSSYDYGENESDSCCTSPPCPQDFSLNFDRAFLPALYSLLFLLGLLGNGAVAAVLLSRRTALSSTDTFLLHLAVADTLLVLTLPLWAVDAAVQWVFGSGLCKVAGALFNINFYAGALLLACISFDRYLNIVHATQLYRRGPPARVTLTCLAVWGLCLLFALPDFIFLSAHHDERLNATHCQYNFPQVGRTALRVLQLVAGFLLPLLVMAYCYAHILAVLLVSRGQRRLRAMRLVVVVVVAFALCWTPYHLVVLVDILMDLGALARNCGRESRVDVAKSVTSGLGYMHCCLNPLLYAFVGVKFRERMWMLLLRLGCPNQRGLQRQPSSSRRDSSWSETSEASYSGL

| Compound | IC50 [nM] |
| --- | --- |
| O=C(O)CC(c1ccc(Cl)cc1)N(Cc1ccc(OCCN2C(=O)CCC2=O)c(F)c1)CC1CCCCC1 (stereo not shown) [Example 57, 3-(4-Chloro-phenyl)-3-(cyclohexylmethyl-{4-[2-(2,5-dioxo-pyrrolidin-1-yl)-ethoxy]-3-fluoro-benzyl}-amino)-propionic acid] | 212 |
| CCCN(Cc1ccc(OCCN2C(=O)CCC2=O)c(F)c1)C(CC(=O)O)c1ccc(Cl)c(F)c1 (stereo not shown) [Example 58, 3-(4-Chloro-3-fluoro-phenyl)-3-({4-[2-(2,5-dioxo-pyrrolidin-1-yl)-ethoxy]-3-fluoro-benzyl}-propyl-amino)-propionic acid] | 183 |
| CCCCN(Cc1ccc(OCCN2C(=O)CCC2=O)c(F)c1)C(CC(=O)O)c1ccc(Cl)c(F)c1 (stereo not shown) [Example 59, 3-(Butyl-{4-[2-(2,5-dioxo-pyrrolidin-1-yl)-ethoxy]-3-fluoro-benzyl}-amino)-3-(4-chloro-3-fluoro-phenyl)-propionic acid] | 109 |
| O=C(O)CC(c1ccc(Cl)c(F)c1)N(Cc1ccc(OCCN2C(=O)CCC2=O)c(F)c1)CC1CCCC1 (stereo not shown) [Example 60, 3-(4-Chloro-3-fluoro-phenyl)-3-(cyclopentylmethyl-{4-[2-(2,5-dioxo-pyrrolidin-1-yl)-ethoxy]-3-fluoro-benzyl}-amino)-propionic acid] | 243 |
| CCCCN(Cc1ccc(OCCN2C(=O)CCC2=O)c(F)c1)C(CC(=O)O)c1ccc(Cl)c(Cl)c1 (stereo not shown) [Example 64, 3-(Butyl-{4-[2-(2,5-dioxo-pyrrolidin-1-yl)-ethoxy]-3-fluoro-benzyl}-amino)-3-(3,4-dichloro-phenyl)-propionic acid] | 456 |
| O=C(O)CC(c1ccc(Cl)c(Cl)c1)N(Cc1ccc(OCCN2C(=O)CCC2=O)c(F)c1)CC1CCCC1 (stereo not shown) [Example 65, 3-(Cyclopentylmethyl-{4-[2-(2,5-dioxo-pyrrolidin-1-yl)-ethoxy]-3-fluoro-benzyl}-amino)-3-(3,4-dichloro-phenyl)-propionic acid] | 186 |
| Cc1cc(CN(CC2CCC2)[C@@H](CC(=O)O)c2ccc(Cl)cc2)ccc1OCCN1C(=O)CCC1=O [Example 71, (S)-3-(4-Chloro-phenyl)-3-(cyclobutylmethyl-{4-[2-(2,5-dioxo-pyrrolidin-1-yl)-ethoxy]-3-methyl-benzyl}-amino)-propionic acid] | 54 |
| CCCN(Cc1ccc(OCCN2C(=O)CCC2=O)c(C)c1)C(CC(=O)O)c1ccc(Cl)c(F)c1 (stereo not shown) [Example 75, 3-(4-Chloro-3-fluoro-phenyl)-3-({4-[2-(2,5-dioxo-pyrrolidin-1-yl)-ethoxy]-3-methyl-benzyl}-propyl-amino)-propionic acid] | 25 |
| CCCCN(Cc1ccc(OCCN2C(=O)CCC2=O)c(C)c1)C(CC(=O)O)c1ccc(Cl)c(F)c1 (stereo not shown) [Example 76, 3-(Butyl-{4-[2-(2,5-dioxo-pyrrolidin-1-yl)-ethoxy]-3-methyl-benzyl}-amino)-3-(4-chloro-3-fluoro-phenyl)-propionic acid] | 54 |
| Cc1cc(CN(CC2CCCCC2)C(CC(=O)O)c2ccc(Cl)c(F)c2)ccc1OCCN1C(=O)CCC1=O (stereo not shown) [Example 78, 3-(4-Chloro-3-fluoro-phenyl)-3-(cyclohexylmethyl-{4-[2-(2,5-dioxo-pyrrolidin-1-yl)-ethoxy]-3-methyl-benzyl}-amino)-propionic acid] | 72 |
| CCCCN(Cc1ccc(OCCN2C(=O)CCC2=O)c(C)c1)C(CC(=O)O)c1ccc(Cl)c(Cl)c1 (stereo not shown) [Example 81, 3-(Butyl-{4-[2-(2,5-dioxo-pyrrolidin-1-yl)-ethoxy]-3-methyl-benzyl}-amino)-3-(3,4-dichloro-phenyl)-propionic acid] | 100 |
| Cc1cc(CN(CC2CCCCC2)C(CC(=O)O)c2ccc(Cl)c(Cl)c2)ccc1OCCN1C(=O)CCC1=O (stereo not shown) [Example 83, 3-(Cyclohexylmethyl-{4-[2-(2,5-dioxo-pyrrolidin-1-yl)-ethoxy]-3-methyl-benzyl}-amino)-3-(3,4-dichloro-phenyl)-propionic acid] | 302 |
| CCc1cc(CN(CC2CC2)C(CC(=O)O)c2ccc(Cl)cc2)ccc1OCCN1C(=O)CCC1=O (stereo not shown) [Example 84, 3-(4-Chloro-phenyl)-3-(cyclopropylmethyl-{4-[2-(2,5-dioxo-pyrrolidin-1-yl)-ethoxy]-3-ethyl-benzyl}-amino)-propionic acid] | 45 |
| CCCN(Cc1ccc(OCCN2C(=O)CCC2=O)c(CC)c1)C(CC(=O)O)c1ccc(Cl)cc1 (stereo not shown) [Example 85, 3-(4-Chloro-phenyl)-3-({4-[2-(2,5-dioxo-pyrrolidin-1-yl)-ethoxy]-3-ethyl-benzyl}-propyl-amino)-propionic acid] | 58 |
| CCc1cc(CN(CC(C)C)C(CC(=O)O)c2ccc(Cl)cc2)ccc1OCCN1C(=O)CCC1=O (stereo not shown) [Example 86, 3-(4-Chloro-phenyl)-3-({4-[2-(2,5-dioxo-pyrrolidin-1-yl)-ethoxy]-3-ethyl-benzyl}-isobutyl-amino)-propionic acid] | 12 |
| CCc1cc(CN(CC2CCCCC2)C(CC(=O)O)c2ccc(Cl)cc2)ccc1OCCN1C(=O)CCC1=O (stereo not shown) [Example 89, 3-(4-Chloro-phenyl)-3-(cyclohexylmethyl-{4-[2-(2,5-dioxo-pyrrolidin-1-yl)-ethoxy]-3-ethyl-benzyl}-amino)-propionic acid] | 51 |
| CCc1cc(CN(CC2CC2)C(CC(=O)O)c2ccc(Cl)c(F)c2)ccc1OCCN1C(=O)CCC1=O (stereo not shown) [Example 90, 3-(4-Chloro-3-fluoro-phenyl)-3-(cyclopropylmethyl-{4-[2-(2,5-dioxo-pyrrolidin-1-yl)-ethoxy]-3-ethyl-benzyl}-amino)-propionic acid] | 50 |
| CCCN(Cc1ccc(OCCN2C(=O)CCC2=O)c(CC)c1)C(CC(=O)O)c1ccc(Cl)c(F)c1 (stereo not shown) [Example 91, 3-(4-Chloro-3-fluoro-phenyl)-3-({4-[2-(2,5-dioxo-pyrrolidin-1-yl)-ethoxy]-3-ethyl-benzyl}-propyl-amino)-propionic acid] | 56 |
| CCCCN(Cc1ccc(OCCN2C(=O)CCC2=O)c(CC)c1)C(CC(=O)O)c1ccc(Cl)c(F)c1 (stereo not shown) [Example 93, 3-(Butyl-{4-[2-(2,5-dioxo-pyrrolidin-1-yl)-ethoxy]-3-ethyl-benzyl}-amino)-3-(4-chloro-3-fluoro-phenyl)-propionic acid] | 79 |
| CCc1cc(CN(CC2CC2)C(CC(=O)O)c2ccc(Cl)c(Cl)c2)ccc1OCCN1C(=O)CCC1=O (stereo not shown) [Example 96, 3-(Cyclopropylmethyl-{4-[2-(2,5-dioxo-pyrrolidin-1-yl)-ethoxy]-3-ethyl-benzyl}-amino)-3-(3,4-dichloro-phenyl)-propionic acid] | 78 |

Further compounds by falling IC50, results first:

| IC50 [nM] | Compound |
| --- | --- |
| 503 | CCCN(Cc1ccc(OCCN2C(=O)CCC2=O)c(F)c1)C(CC(=O)O)c1ccc(Cl)c(Cl)c1 (stereo not shown) [Example 62, 3-(3,4-Dichloro-phenyl)-3-({4-[2-(2,5-dioxo-pyrrolidin-1-yl)-ethoxy]-3-fluoro-benzyl}-propyl-amino)-propionic acid] |
| 334 | O=C(O)CC(c1ccc(Cl)c(F)c1)N(Cc1ccc(OCCN2C(=O)CCC2=O)c(F)c1)CC1CCCCC1 (stereo not shown) [Example 61, 3-(4-Chloro-3-fluoro-phenyl)-3-(cyclohexylmethyl-{4-[2-(2,5-dioxo-pyrrolidin-1-yl)-ethoxy]-3-fluoro-benzyl}-amino)-propionic acid] |
| 303 | CC(C)CN(Cc1ccc(OCCN2C(=O)CCC2=O)c(F)c1)C(CC(=O)O)c1ccc(Cl)c(Cl)c1 (stereo not shown) [Example 63, 3-(3,4-Dichloro-phenyl)-3-({4-[2-(2,5-dioxo-pyrrolidin-1-yl)-ethoxy]-3-fluoro-benzyl}-isobutyl-amino)-propionic acid] |
| 144 | CCc1cc(CN(CC2CCCCC2)C(CC(=O)O)c2ccc(Cl)c(F)c2)ccc1OCCN1C(=O)CCC1=O (stereo not shown) [Example 95, 3-(4-Chloro-3-fluoro-phenyl)-3-(cyclohexylmethyl-{4-[2-(2,5-dioxo-pyrrolidin-1-yl)-ethoxy]-3-ethyl-benzyl}-amino)-propionic acid] |
| 119 | Cc1cc(CN(CC2CCCC2)C(CC(=O)O)c2ccc(Cl)c(Cl)c2)ccc1OCCN1C(=O)CCC1=O (stereo not shown) [Example 82, 3-(Cyclopentylmethyl-{4-[2-(2,5-dioxo-pyrrolidin-1-yl)-ethoxy]-3-methyl-benzyl}-amino)-3-(3,4-dichloro-phenyl)-propionic acid] |
| 116 | CCCN(Cc1ccc(OCCN2C(=O)CCC2=O)c(C)c1)C(CC(=O)O)c1ccc(Cl)c(Cl)c1 (stereo not shown) [Example 79, 3-(3,4-Dichloro-phenyl)-3-({4-[2-(2,5-dioxo-pyrrolidin-1-yl)-ethoxy]-3-methyl-benzyl}-propyl-amino)-propionic acid] |
| 71 | CCc1cc(CN(CC2CCCC2)C(CC(=O)O)c2ccc(Cl)c(F)c2)ccc1OCCN1C(=O)CCC1=O (stereo not shown) [Example 94, 3-(4-Chloro-3-fluoro-phenyl)-3-(cyclopentylmethyl-{4-[2-(2,5-dioxo-pyrrolidin-1-yl)-ethoxy]-3-ethyl-benzyl}-amino)-propionic acid] |
| 70 | CCc1cc(CN(CC2CCC2)[C@@H](CC(=O)O)c2ccc(Cl)cc2)ccc1OCCN1C(=O)CCC1=O [Example 88, (S)-3-(4-Chloro-phenyl)-3-(cyclobutylmethyl-{4-[2-(2,5-dioxo-pyrrolidin-1-yl)-ethoxy]-3-ethyl-benzyl}-amino)-propionic acid] |
| 66 | CCc1cc(CN(CC(C)C)C(CC(=O)O)c2ccc(Cl)c(F)c2)ccc1OCCN1C(=O)CCC1=O (stereo not shown) [Example 92, 3-(4-Chloro-3-fluoro-phenyl)-3-({4-[2-(2,5-dioxo-pyrrolidin-1-yl)-ethoxy]-3-ethyl-benzyl}-isobutyl-amino)-propionic acid] |
| 34 | Cc1cc(CN(CC2CC2)C(CC(=O)O)c2ccc(Cl)c(F)c2)ccc1OCCN1C(=O)CCC1=O (stereo not shown) [Example 74, 3-(4-Chloro-3-fluoro-phenyl)-3-(cyclopropylmethyl-{4-[2-(2,5-dioxo-pyrrolidin-1-yl)-ethoxy]-3-methyl-benzyl}-amino)-propionic acid] |
| 31 | CCCCN(Cc1ccc(OCCN2C(=O)CCC2=O)c(CC)c1)C(CC(=O)O)c1ccc(Cl)cc1 (stereo not shown) [Example 87, 3-(Butyl-{4-[2-(2,5-dioxo-pyrrolidin-1-yl)-ethoxy]-3-ethyl-benzyl}-amino)-3-(4-chloro-phenyl)-propionic acid] |

— patent US9447038B2 (SANOFI, priority 2012, dated 2016)
